Results: patent US10941379B2, “Microbial system for biosynthesis of natural and engineered products coupled to in situ extraction in supercritical CO2” (Massachusetts Institute of Technology, priority 2016, dated 2021)

Legend:
Format in all cases: cell-based, Bacillus megaterium
B. megaterium SR7 [1] = assay: SR7 antibiotic sensitivity in LB (OD600 vs unamended control); details: for % Control: (OD600 AB/OD600 Control)*100 in LB, average n = 2, 24 hours, 37° C.; for Sensitivity: LB
Experimental: To help guide optimization of growth conditions for strain SR7, physiological tests were conducted under aerobic conditions. To determine tolerance for pH, salinity and bicarbonate, high throughput culturing was done in 96 well plates and scored for growth by OD600 using a microplate reader (BioTek Synergy 2; BioTek; Winooski, Vt.). 200 uL LB solutions/well were inoculated in triplicate with 10^4 spores/ml (based on SR7 spore stock filter counts) and incubated on a plate rocker at 37° C. with unamended positive and cell-free negative LB controls. Tests for pH tolerance (pH 2-10) were conducted in LB medium amended with HCl or NaOH. The effect of salinity and bicarbonate on growth was determined by adding NaCl (1-10%) and NaHCO3 (0.1-0.5M), respectively, to LB media. Optimal SR7 growth temperature was tested by inoculating 10^4 spores/ml in 5 ml of LB in triplicate at temperatures of 9-55° C. Cultures and cell-free negative controls were incubated without shaking, with subsamples taken for periodic OD600 measurements. SR7 antibiotic sensitivity was determined by supplementing 5 ml LB with ampicillin (5-50 μg/ml), chloramphenicol (3.5-35 μg/ml), kanamycin (5-50 μg/ml), spectinomycin (10-100 μg/ml), streptomycin (10-100 μg/ml), or tetracycline (1.5-15 μg/ml).

B. megaterium SR7 [2] = assay: Biolog GenIII Microplate growth sensitivity assay; details: for % Control: (OD490 AB/OD490 Control)*100 for Biolog, average n = 2, Biolog does not publish concentrations; for Sensitivity: Biolog, concentration not published; for SR7 growth inhibition in Biolog assays: result in words; as to sensitivity: key: S = sensitive; R = resistant
Experimental: (§1) Plates were incubated at 37° C. on a plate shaker at 200 rpm and assayed for growth using NADH-dependent colorimetric changes measured by OD490 on a microplate reader (BioTek Synergy 2; BioTek; Winooski, Vt.).

B. megaterium QM B1551 = assay: Biolog GenIII sole carbon source growth; details: no metals added; Table 10
Experimental: as §1

B. megaterium SR7 [3] = assay: Biolog GenIII sole carbon source growth; details: for Growth on Biolog sole carbon source, SR7: no metals added, Table 10; for Growth in carbon source Biolog plate, +Metals: trace metals-amended plate; for Growth in carbon source Biolog plate, +Metals / Growth in carbon source Biolog plate, I / Growth in carbon source Biolog plate, II: Table 11; for Growth in carbon source Biolog plate, I: unamended plate trial I; for Growth in carbon source Biolog plate, II: unamended plate trial II
Experimental: as §1

B. megaterium DSM319 = assay: Biolog GenIII sole carbon source growth; details: no metals added; Table 10
Experimental: as §1

Compound	% Control (B. megaterium SR7 [2]) [%]	Sensitivity (B. megaterium SR7 [2])	Growth in carbon source Biolog plate, +Metals (B. megaterium SR7 [3])	Growth in carbon source Biolog plate, I (B. megaterium SR7 [3])	Growth in carbon source Biolog plate, II (B. megaterium SR7 [3])	other results
O=C(N[C@H](CO)[C@H](O)c1ccc([N+](=O)[O-])cc1)C(Cl)Cl [Chloramphenicol]						% Control (B. megaterium SR7 [1]; 35 ug/mL): 9%; Sensitivity (B. megaterium SR7 [1]; 35 ug/mL): S
CCC[C@@H]1C[C@@H](C(=O)N[C@@H]([C@H]2O[C@H](SC)[C@H](O)[C@@H](O)[C@H]2O)[C@@H](C)O)N(C)C1 [Lincomycin]	11	S				
CN(C)c1ccc(O)c2c1C[C@H]1C[C@H]3[C@H](N(C)C)C(O)=C(C(N)=O)C(=O)[C@@]3(O)C(O)=C1C2=O [Minocycline]		S				
OC[C@H]1O[C@@](CO)(O[C@H]2O[C@H](CO)[C@@H](O)[C@H](O)[C@H]2O)[C@@H](O)[C@@H]1O [Sucrose]			+	−	+	Growth on Biolog sole carbon source, QM B1551 (B. megaterium QM B1551): +; Growth on Biolog sole carbon source, SR7 (B. megaterium SR7 [3]): −; Growth on Biolog sole carbon source, DSM319 (B. megaterium DSM319): +++
[H]/N=C(/N)N[C@H]1[C@H](O)[C@@H](O)[C@H](O[C@@H]2O[C@@H](C)[C@](O)(C=O)[C@H]2O[C@@H]2O[C@@H](CO)[C@H](O)[C@@H](O)[C@@H]2NC)[C@@H](N/C(N)=N\[H])[C@@H]1O [Streptomycin]						% Control (B. megaterium SR7 [1]; 10 ug/mL): 10%; Sensitivity (B. megaterium SR7 [1]; 10 ug/mL): S
CC(O)CC(=O)O (racemic) [β-Hydroxy-D,L-Butyric Acid]			+	+	+	Growth on Biolog sole carbon source, QM B1551 (B. megaterium QM B1551): +++; Growth on Biolog sole carbon source, SR7 (B. megaterium SR7 [3]): +; Growth on Biolog sole carbon source, DSM319 (B. megaterium DSM319): +
CC(=O)O[C@H]1C[C@@]2(C)[C@@H](C[C@@H](O)[C@H]3[C@@]4(C)CC[C@@H](O)[C@@H](C)[C@@H]4CC[C@@]32C)/C1=C(\CCC=C(C)C)C(=O)O [Fusidic Acid]	9	S				
CC1(C)S[C@@H]2[C@H](NC(=O)[C@H](N)c3ccccc3)C(=O)N2[C@H]1C(=O)O [Ampicilin]						% Control (B. megaterium SR7 [1]; 50 ug/mL): 8%; Sensitivity (B. megaterium SR7 [1]; 50 ug/mL): S
CO[C@H]1C[C@H](O[C@H]2[C@H](C)[C@@H](O[C@@H]3O[C@H](C)C[C@H](N(C)C)[C@H]3OC(C)=O)[C@@H](C)C[C@@]3(CO3)C(=O)[C@H](C)[C@@H](OC(C)=O)[C@@H](C)[C@@H](C)OC(=O)[C@@H]2C)O[C@@H](C)[C@@H]1OC(C)=O [Troleandomycin]	9	S				
N[C@@H](Cc1c[nH]cn1)C(=O)O [L-Histidine]			+	+	+	Growth on Biolog sole carbon source, QM B1551 (B. megaterium QM B1551): +; Growth on Biolog sole carbon source, SR7 (B. megaterium SR7 [3]): +; Growth on Biolog sole carbon source, DSM319 (B. megaterium DSM319): +++
NC[C@H]1O[C@H](O[C@H]2[C@H](O)[C@@H](O[C@H]3O[C@H](CO)[C@@H](O)[C@H](N)[C@H]3O)[C@H](N)C[C@@H]2N)[C@H](O)[C@@H](O)[C@@H]1O [Kanamycin]						% Control (B. megaterium SR7 [1]; 5 ug/mL): 9%; Sensitivity (B. megaterium SR7 [1]; 5 ug/mL): S
N[C@H](CO)C(=O)O [D-Serine, reference compound]	10	S	−	−	−	SR7 growth inhibition in Biolog assays (B. megaterium SR7 [2]): inhibited
CN(C)[C@@H]1C(O)=C(C(N)=O)C(=O)[C@@]2(O)C(O)=C3C(=O)c4c(O)cccc4[C@@](C)(O)[C@H]3C[C@@H]12 [Tetracycline]						% Control (B. megaterium SR7 [1]; 1.5 ug/mL): 11%; Sensitivity (B. megaterium SR7 [1]; 1.5 ug/mL): S
CCCCC(CC)CCC(CC(C)C)OS(=O)(=O)[O-].[Na+] (stereo not shown) [Niaproof 4]	9	S				SR7 growth inhibition in Biolog assays (B. megaterium SR7 [2]): inhibited
C[C@H]1[C@H](NC(=O)/C(=N\OC(C)(C)C(=O)O)c2csc(N)n2)C(=O)N1S(=O)(=O)O [Aztreonam]	10	S				
CO[C@H]1/C=C/O[C@@]2(C)Oc3c(C)c([O-])c4c(O)c(cc(O)c4c3C2=O)NC(=O)/C(C)=C\C=C\[C@H](C)[C@H](O)[C@@H](C)[C@@H](O)[C@@H](C)[C@H](OC(C)=O)[C@@H]1C.[Na+] [Rifamycin SV]	11	S				
O=C(O)CC(O)(CC(=O)O)C(=O)O [Citric Acid]			+++	+++		
O=P(O)(O)OC[C@H]1OC(O)[C@H](O)[C@@H](O)[C@@H]1O (stereo partly drawn) [D-Glucose-6-PO4]			−	−	−	
CCC(O)C(=O)O (stereo not drawn) [α-Hydroxy-Butyric Acid]			−	−	−	
OC[C@H]1O[C@H](O[C@H]2[C@H](O)[C@@H](O)[C@H](O)O[C@@H]2CO)[C@H](O)[C@@H](O)[C@@H]1O [D-Maltose]			+	−	+	Growth on Biolog sole carbon source, SR7 (B. megaterium SR7 [3]): −
D-Salicin			+	+	+	
O=C[C@@H](O)[C@@H](O)[C@H](O)[C@H](O)CO [D-Mannose]			−	−	−	
CN[C@@H]1[C@H](O)[C@H](NC)[C@H]2O[C@@]3(O)C(=O)C[C@@H](C)O[C@H]3O[C@@H]2[C@H]1O [Spectinomycin]						% Control (B. megaterium SR7 [1]; 100 ug/mL): 47%; Sensitivity (B. megaterium SR7 [1]; 100 ug/mL): S/R; SR7 sensitivity to antibiotics (B. megaterium SR7 [1]; result in words, summary of Table 9): intermediate sensitivity
CCC(=O)C(=O)O [α-Keto-Butyric Acid]			−	−	−	
CCn1cc(C(=O)O)c(=O)c2ccc(C)nc21 [Nalidixic Acid]	14	S				
NCCCC(=O)O [Υ-Amino-Butryric Acid]			+++	−	+	
CN[C@H](CC(C)C)C(=O)N[C@H]1C(=O)N[C@@H](CC(N)=O)C(=O)N[C@H]2C(=O)N[C@H]3C(=O)N[C@H](C(=O)N[C@H](C(=O)O)c4cc(O)cc(O)c4-c4cc3ccc4O)[C@H](O)c3ccc(c(Cl)c3)Oc3cc2cc(c3O[C@@H]2O[C@H](CO)[C@@H](O)[C@H](O)[C@H]2O[C@H]2C[C@](C)(N)[C@H](O)[C@H](C)O2)Oc2ccc(cc2Cl)[C@H]1O [Vancomycin]	10	S				
O=C1CC[C@@H](C(=O)O)N1 [L-Pyroglutamic Acid]			+++	+	+	
Tween 40			−	−	+	
